Source: US4812583A, “Substituted acyloxyalkylphenylethylene inhibitors of 3-hydroxy-3-methylglutaryl-coa reductase” (American Home Products Corporation, priority 1987, dated 1989)
Where two headings read alike, the source gives them in different places.

How the values were obtained:
[1] = molecular target: T1, HMG-CoA Reductase (Rattus norvegicus, UniProt P51639); assay: Inhibition of HMG-CoA reductase (rat liver microsomal fraction, [14C] HMG-CoA); assay type: biochemical; details: rat liver microsomal enzyme, pH 7.5, 37° C., 20 min
T1 construct: the microsomal fraction is isolated by differential ultra centrifugation to obtain the HMG-CoA reductase enzyme; from tissue; host or cells: rat liver, microsomal fraction (cholestyramine-fed rats)
T1 sequence (P51639 1-887): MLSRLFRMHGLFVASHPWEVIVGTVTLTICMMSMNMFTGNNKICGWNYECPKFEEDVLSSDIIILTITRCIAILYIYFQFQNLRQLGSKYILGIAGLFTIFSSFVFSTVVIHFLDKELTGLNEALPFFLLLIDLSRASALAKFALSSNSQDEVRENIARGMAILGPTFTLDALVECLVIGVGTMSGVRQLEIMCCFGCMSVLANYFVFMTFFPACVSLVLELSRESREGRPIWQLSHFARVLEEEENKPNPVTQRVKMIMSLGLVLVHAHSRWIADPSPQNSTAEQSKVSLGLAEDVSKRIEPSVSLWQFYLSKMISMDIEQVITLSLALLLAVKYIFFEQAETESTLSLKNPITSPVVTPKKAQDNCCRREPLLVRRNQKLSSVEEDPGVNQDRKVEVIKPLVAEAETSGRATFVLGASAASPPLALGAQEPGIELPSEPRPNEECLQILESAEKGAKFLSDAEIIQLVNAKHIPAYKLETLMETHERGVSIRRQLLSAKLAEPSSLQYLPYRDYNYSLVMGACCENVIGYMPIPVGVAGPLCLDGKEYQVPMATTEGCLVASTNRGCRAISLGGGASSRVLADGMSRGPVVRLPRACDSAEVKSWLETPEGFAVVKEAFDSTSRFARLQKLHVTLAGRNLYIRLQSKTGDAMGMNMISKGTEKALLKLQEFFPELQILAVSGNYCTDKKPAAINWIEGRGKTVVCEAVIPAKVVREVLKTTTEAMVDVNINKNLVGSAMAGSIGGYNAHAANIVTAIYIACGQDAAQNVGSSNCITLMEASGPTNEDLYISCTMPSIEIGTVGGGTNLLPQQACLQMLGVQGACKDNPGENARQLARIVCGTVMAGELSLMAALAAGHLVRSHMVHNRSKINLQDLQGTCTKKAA
Source text: The HMG-CoA reductase inhibitory properties of representative compounds of this invention were established by subjecting the compounds to the following standard experimental test procedure adapted from Rodwell et al., Adv. Lipid Res. 14 1, 1976; Endo et al., FEBS Letters 72 323, 1976; and Tanzawa et al., Biochemia et Biophysica Acta 488 97, 1977.
Rat livers obtained from rats fed on a diet containing 3% cholestyramine and maintained on a reverse lighting regimen for three weeks are homogenized and the microsomal fraction is isolated by differential ultra centrifugation to obtain the HMG-CoA reductase enzyme. To a preincubated (five minutes at 37° C.) solution of the compound being tested (as either the lactone and/or dihydroxy sodium carboxylate in amounts from 10^-3 to 10^-6 M) in TEDKS100 pH (Tris® 40 mM; EDTA 1 mM; dithiothreitol 5 mM; KCl 70 mM; sucrose 100 mM) 7.5 buffer or DMSO dissolved in an assay medium containing 20 μl of 2.5M KCl; 20 μl NADPH (reduced nicotinamide adenine dinucleotide phosphate) (7.5 mM); and 40 μl of labeled (RS) HMG-CoA (3-^14 C; […]; 200 μM) is added 10 μl of preincubated (five minutes at 37° C.) microsomal fraction (produced above) to obtain a total volume of 125 μl. After a twenty minute incubation period at 37° C., reaction of the enzyme is terminated by addition of 10 μl of 70% of HClO4. The assay tubes are then centrifuged for two minutes in a Beckman microfuge II.
To 100 μl of the supernatant liquid is added 10 μl of non-radioactivemevalonic acid lactone (0.25M in 8 mM H2 SO4). An aliquot of the sample is eluted with 8 mM H2 SO4 through Bio Rad Aminex HPX-87H (HPLC; Hewlett-Packard Model 1084B) at a flow rate of 1 mL/minute. The effluent is fractionated, Hydrofluor® is added and radioactivity of the [^14 C] mevalonolactone produced by reduction of [^14 C] HMG-CoA determined with a scintillation counter.
The percent inhibition of HMG-CoA reductase activity is obtained by comparison with a control assay devoid of the test compound. The inhibitory concentration (IC50) is calculated for the various test compounds.

[2] = system: biosynthesis of cholesterol; details: background; cited from earlier work
[3] = Dihydroxycarboxylate form (dihydroxy sodium carboxylate), read-out: Inhibition of HMG-CoA Reductase (IC50, M), Dihydroxycarboxylate
[4] = Lactone form, read-out: Inhibition of HMG-CoA Reductase (IC50, M), Lactone

Structure (SMILES) | IC50 [1, 3] [M] | IC50 [1, 4] [M] | inhibition of cholesterol biosynthesis, in words [2]
CCCCCCCCCC(OC(=O)C(C)(C)CC)c1cc(C)cc(C)c1/C=C/[C@@H]1C[C@@H](O)CC(=O)O1 (relative stereo) [Example 2, 2,2-Dimethylbutanoic acid[4α,6β(E)]-1-[2-[2-(tetrahydro-4-hydroxy-6-oxo-2H-pyran-2-yl)ethenyl]-3,5-dimethylphenyl]decyl ester] | > 0.0001 | > 0.001 | –
CC[C@H](C)C(=O)O[C@H]1C[C@@H](C)C=C2C=C[C@H](C)[C@H](CC[C@@H]3C[C@@H](O)CC(=O)O3)[C@H]21 [Mevinolin, reference compound] | 5e-09 | 6e-07 | more effectively
CC[C@H](C)C(=O)O[C@H]1CCC=C2C=C[C@H](C)[C@H](CC[C@@H]3C[C@@H](O)CC(=O)O3)[C@H]21 [compactin] | – | – | could be inhibited

Continued, in another order:

IC50 [1, 3] [M] | IC50 [1, 4] [M] | Structure (SMILES) | inhibition of cholesterol biosynthesis, in words [2]
1.7e-06 | 2.7e-06 | CCCC(OC(=O)C(C)(C)CC)c1cc(C)cc(C)c1/C=C/[C@@H]1C[C@@H](O)CC(=O)O1 (relative stereo) [Example 1] | –
6.2e-06 | 0.0017 | CCC(C)(C)C(=O)OC(c1ccccc1)c1cc(C)cc(C)c1/C=C/[C@@H]1C[C@@H](O)CC(=O)O1 (relative stereo) [Example 3, 2,2-Dimethylbutanoic acid[4α,6β,(E)]-[[3,5-dimethyl-[2-[2-tetrahydro-4-hydroxy-6-oxo-2H-pyran-2-yl]ethenyl]phenyl]phenylmethyl]ester] | –
4e-05 | 5.7e-05 | CCC(C)(C)C(=O)OCc1cc(C)cc(C)c1/C=C/[C@@H]1C[C@@H](O)CC(=O)O1 (relative stereo) [Example 4] | –
